Assay results reported in the NIST ThermoML archive (doi:10.1016/j.jct.2009.03.001).
± gives the expanded uncertainty stated by the source.

Experiment: molar enthalpy of vaporization or sublimation
Conditions: 298.15 K; Crystal; drop microcalorimetry

| SMILES | molar enthalpy |
| --- | --- |
| O=[N+]([O-])c1ccc(Cl)cc1Cl [1,3-dichloro-4-nitrobenzene] | 21 ± 0.813 kcal/mol |
| O=[N+]([O-])c1cc(Cl)cc(Cl)c1 [1,3-dichloro-5-nitrobenzene] | 19.9 ± 0.717 kcal/mol |
| O=[N+]([O-])c1cc(Cl)ccc1Cl [1,4-dichloro-2-nitrobenzene] | 20.9 ± 1.2 kcal/mol |
| O=[N+]([O-])c1ccc(Cl)c(Cl)c1 [3,4-dichloro-1-nitrobenzene] | 20.5 ± 1.2 kcal/mol |
